Measurements reported in paper PMC6155852, “Oral Administration of the Japanese Traditional Medicine Keishibukuryogan-ka-yokuinin Decreases Reactive Oxygen Metabolites in Rat Plasma: Identification of Chemical Constituents Contributing to Antioxidant Activity” (Molecules : A Journal of Synthetic Chemistry and Natural …, 2017).
Several values for one entry are separate records, joined by “and”; a condition that tells them apart may be missing. Identical values can stand only once. Like-named read-outs stand apart in the source and are kept apart here.

How the values were obtained:
[1] = Lipid hydroperoxide (LPO) generation assay (linoleic acid, Fenton reaction); type: biochemical
Experimental: Antioxidant assays using linoleic acid with a purity of 98.0% (Wako Pure Chemical Ind.) were performed using a described protocol with modifications. Briefly, 20 μL of 1% linoleic acid in methanol, 20 μL of 20 mmol/L ferrous chloride in water, 20 μL of test sample in DMSO, and 150 μL of a mixed solution (1:1) of methanol and 20 mmol/L phosphate buffer (pH 7.0) were added to 96-well polypropylene plates. After incubation at room temperature in the dark for 1 h, 10 μL of the reaction products were transferred to 200 μL of a methanol solution containing 39 mmol/L ammonium thiocyanate, 0.2 mmol/L ferrous chloride, and 0.01 mol/L hydrochloride. After incubation for 15 min, absorbance at 500 nm was measured using a microplate reader (Multiskan GO, Thermo Fisher Scientific Inc., Waltham, MA, USA). The concentration of lipid hydroperoxide (LPO) products was calculated conveniently using standard curves of serially-diluted linolein hydroperoxides (Cayman Chemical). The percentage of control was calculated using the following formula; (A − B)/(C − B) × 100, with A = test sample, B = linoleic acid alone, and C = vehicle control. Ascorbic acid was used as a reference agent.

[2] = ROS scavenging assay (hydrogen peroxide-dependent oxidation); type: biochemical; conditions: for Antioxidant Activity (% of Control) ROS Scavenge: C.I. = complete inhibition
Experimental: Hydrogen peroxide-dependent oxidation tests were performed using Oxiselect™ In Vitro ROS/RNS Assay kits (Cellbiolab Inc., San Diego, CA, USA) according to the manufacturer’s protocol. Briefly, a test sample was mixed with hydrogen peroxide (final concentration: 2.5 μmol/L) and incubated for 5 min. A fluorescent reaction was started by the addition of a fluorescent probe (dichrolodihydrofluorescin-DiOxyQ) at room temperature. After incubation for 15 min, relative fluorescent units (RFUs) were measured at […] using a fluorescent plate reader (Infinite M200; Tecan Trading AG, Männedorf, Switzerland). The percentage of control was calculated using the following formula; (A − B)/(C − B) × 100, with A = test sample, B = fluorescent probe alone, and C = vehicle control. (+)-Ascorbic acid was used as a reference agent.

[3] = Plasma pharmacokinetics of KBGY constituents in rats after single oral administration of KBGY; type: in vivo, rat
Experimental: KBGY prepared in water was administered orally to 16 h fasted rats at a dose of 2 g/10 mL/kg (n = 3). […] Plasma was obtained by centrifugation at 1700× g for 15 min at 4 °C and stored at −80 °C until analysis.
For quantification of the dicarboxylic acid, 50 µL of standard solution, 100 µL of acetic acid (2%, v/v), and 650 µL of ethyl acetate were added to 200 µL of plasma samples, followed by mixing and centrifugation (7000× g, 5 min). The supernatants were collected and dried with a centrifugal evaporator and concentration system (CC-105; TOMY SEIKO Co., Tokyo, Japan). The residue was dissolved with 100 µL acetonitrile and 50 µL BF3/butanol solution; the dissolved solution was incubated for 1 h at 60 °C. The reaction was terminated by the addition of 50 µL of water and hexane, 150 µL of a saturated solution of sodium chloride, and 400 µL of hexane. The solution was vortexed for 2 min, and the supernatant was obtained by centrifugation (7000× g, 5 min). Liquid–liquid extraction was repeated twice. The corrected supernatant was dried with the centrifugal evaporator and concentration system. The dried residue was dissolved in 100 µL of acetonitrile containing 1 µg/mL of o-terphenyl (Tokyo Chemical Ind. Co.) as an internal standard (IS). Five microliters of the solution was then injected into the GC/MS system.
For quantification of volatile organic compounds (cinnamaldehyde, methyl cinnamate, 2-methoxycinnamaldehyde, mandelonitrile, salicylaldehyde, eugenol, cinnamyl alcohol, and 3-phenylpropyl acetate), 25 µL of standard solution, 25 µL of 2 µg/mL of 1,4-dibromobenzene (Tokyo Chemical Ind. Co.) as IS, and 500 µL of acetonitrile were added to 200 µL of plasma samples, followed by mixing and centrifugation (7000× g, 5 min). Five microliters of the supernatant was then injected into the GC/MS system.
For quantification of other compounds, 25 µL of standard solution, 25 µL of 2 ng/mL of atropine sulfate monohydrate (Wako Pure Chemical Ind.) or niflumic acid (Sigma-Aldrich) as IS, and 750 µL of methanol were added to 200 µL of plasma samples, followed by mixing and centrifugation (7000× g, 5 min). The supernatant was obtained and dried with the centrifugal evaporator and concentration system after 150 µL of propylene glycol (1%, v/v) was added to the supernatant. The dried residue was then dissolved in 60 μL of the HPLC mobile phase for each analytical method, and a 10 or 20 μL portion was injected into the LC/MS/MS system.
Plasma pharmacokinetic data were analyzed by noncompartmental modeling using Phoenix WinNonlin (version 6.3, Certara L.P., St. Louis, MO, USA) to determine various pharmacokinetic constants, including the maximum concentration (Cmax), time to maximum concentration (tmax), apparent elimination half-life (t1/2), and area under the plasma concentration-time curve from zero to last observation time (AUC0–last). The t1/2 was divided by loge^2/ke, where ke was the terminal elimination (at least three data points on the descending linear limb) rate constant.

[4] = 10 μmol/L, more than 100% = no activity
[5] = rat plasma, single oral KBGY 2 g/kg
[6] = in vivo, rat plasma, single oral KBGY 2 g/kg, read-out: AUC0–last
[7] = in vivo, rat plasma, single oral KBGY 2 g/kg, read-out: Cmax
[8] = in vivo, rat plasma, single oral KBGY 2 g/kg, read-out: tmax

Row | IC50 ([2]; concentration-dependency, Figure 4) [nM] | Structure (SMILES) | Antioxidant Activity (% of Control) LPO Generation ([1]; 1 μmol/L) | Antioxidant Activity (% of Control) LPO Generation [1, 4] | Antioxidant Activity (% of Control) LPO Generation ([1]; 10 μmol/L, more than 100% = no activity, listed as lariciresinol) | Antioxidant Activity (% of Control) ROS Scavenge ([2]; 1 μmol/L) | anti-ROS activity ([2]; 10 μmol/L) | Antioxidant Activity (% of Control) ROS Scavenge [2, 4] | AUC(0-t) ([3]; rat, in vivo, po, 2 g/kg) [ng·h/mL] | Cmax ([3]; rat, in vivo, po, 2 g/kg) | Tmax ([3]; rat, in vivo, po, 2 g/kg) [h] | Antioxidant Activity (% of Control) LPO Generation ([1]; 10 μmol/L, more than 100% = no activity, listed as lyoniresinol) | AUC0–last [3, 5] [ng·h/mL] | Tmax [3, 5] [h] | t1/2 [3, 5] [h] | AUC(0-t) [3, 6] [ng·h/mL] | Cmax [3, 7] | Tmax [3, 8] [h] | half-life ([3]; rat, in vivo, po, 2 g/kg) [min] | half-life ([3]; in vivo, rat plasma, single oral KBGY 2 g/kg, read-out: t1/2 (converted)) [min]
1 | 561 | COc1cc(C[C@H]2CO[C@H](c3ccc(O)c(OC)c3)[C@H]2CO)ccc1O [Lariciresinol] | 98.3 ± 1.4 % of Control | 79.5 ± 1.9 % of Control | less than 80 % of Control | C.I. | strong anti-ROS activity | C.I. | 9.84 | 1.68 ng/mL and 5 nM | 4 | – | – | – | – | – | – | – | – | –
2 | – | COc1cc([C@@H]2c3c(cc(OC)c(O)c3OC)C[C@H](CO)[C@H]2CO)cc(OC)c1O [Lyoniresinol] | 96.8 ± 2.9 % of Control | 57.4 ± 1.6 % of Control | – | 89.3 ± 2.0 % of Control | strong anti-ROS activity | C.I. | – | – | – | less than 80 % of Control | 0.3 | 1 | 11.4 | – | – | – | – | –
3 | – | N#CC(O)c1ccccc1 (stereo not drawn) [Mandelonitrile] | – | 104.6 ± 1.2 % of Control | – | – | – | 99.7 ± 0.6 % of Control | – | – | – | – | – | – | – | 251 | 165 ng/mL and 1.24 µM | 1 | – | –
4 | – | C[C@@]12C[C@@]3(O)O[C@@H](O1)[C@]1(COC(=O)c4ccccc4)[C@H]3C[C@@]12O[C@@H]1O[C@H](CO)[C@@H](O)[C@H](O)[C@H]1O [Paeoniflorin] | – | 92.7 ± 0.9 % of Control | – | – | – | 100.2 ± 1.4 % of Control | 299 | 80.2 ng/mL and 167 nM | – | – | – | 0.5 | – | – | – | – | 163 | –
5 | – | N#C[C@H](O[C@@H]1O[C@H](CO)[C@@H](O)[C@H](O)[C@H]1O)c1ccccc1 [Prunasin] | – | 97.9 ± 3.3 % of Control | – | – | – | 102.2 ± 1.1 % of Control | – | – | – | – | – | – | – | 3700 | 1450 ng/mL and 4.91 µM | 1 | – | 69.6
6 | – | C=C(CC[C@@H](C(=O)O)[C@H]1[C@H](O)C[C@@]2(C)C3=C(CC[C@]12C)[C@@]1(C)CC[C@H](O)C(C)(C)[C@@H]1CC3)C(C)C [Tumulosic acid] | – | 99.4 ± 2.3 % of Control | – | – | – | 105.9 ± 2.1 % of Control | 700 | 200 ng/mL and 411 nM | 0.5 | – | – | – | – | – | – | – | 280 | –
